Results: ChEMBL document CHEMBL1126863 (J Med Chem, 1993)
Square brackets hold non-standard residues; d marks the D form. Peptide text beside a SMILES is read from it. pGlu = O=C1CC[C@@H](C(=O)O)N1

Tests used:
Substance-P receptor [1] = target: T1, Substance-P receptor (Cavia porcellus, UniProt P30547); assay: Evaluated for the binding affinity towards NK1 receptor in the striatal membranes of guinea pig; type: cell membranes, Striatum, Membrane
Substance-P receptor [2] = target: T1, Substance-P receptor; assay: Evaluated for the binding affinity against NK1 receptor
[3] = target: Substance-P receptor (Cavia porcellus) (UniProt P30547); settings: Striatum, Membrane, 10 uM
Target sequence in this assay (P30547 whole entry): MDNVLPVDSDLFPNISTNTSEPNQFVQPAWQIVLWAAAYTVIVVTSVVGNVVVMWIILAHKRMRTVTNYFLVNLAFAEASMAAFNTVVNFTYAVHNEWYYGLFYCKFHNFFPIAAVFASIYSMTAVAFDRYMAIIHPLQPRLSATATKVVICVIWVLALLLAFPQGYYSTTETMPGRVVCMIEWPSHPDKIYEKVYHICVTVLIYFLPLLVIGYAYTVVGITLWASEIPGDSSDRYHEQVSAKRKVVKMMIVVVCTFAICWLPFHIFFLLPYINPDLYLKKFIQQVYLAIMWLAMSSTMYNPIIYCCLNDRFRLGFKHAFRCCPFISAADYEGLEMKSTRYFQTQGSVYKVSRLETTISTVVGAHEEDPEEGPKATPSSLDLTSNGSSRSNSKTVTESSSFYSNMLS
Description: Evaluated for the binding affinity towards NK1 receptor in the striatal membranes of guinea pig at 10 uM

[4] = target: Substance-P receptor (Cavia porcellus) (UniProt P30547); assay: Evaluated for the binding affinity against NK1 receptor at 1 uM
Target sequence in this assay (P30547 whole entry, looked up): as the sequence (P30547 whole entry) above

[5] = target: Substance-P receptor (Cavia porcellus) (UniProt P30547); assay: Evaluated for the binding affinity against NK1 receptor
Target sequence in this assay (P30547 whole entry, looked up): as the sequence (P30547 whole entry) above

T1 sequence (P30547 whole entry): as above

Work on [3H]c1cc([3H])cc([C@@H]2NCCC[C@@H]2NCc2ccccc2OC)c1 yielded a Kd (Substance-P receptor [1]) of 0.32 nM.
CC(C)C[C@H](NC(=O)CN(C)C(=O)[C@H](Cc1ccccc1)NC(=O)[C@H](Cc1ccccc1)NC(=O)[C@H](CCC(N)=O)NC(=O)[C@H](CCC(N)=O)NC(=O)[C@@H]1CCCN1C(=O)[C@H](CCCCN)NC(=O)[C@@H]1CCCN1C(=O)[C@@H](N)CCCNC(=N)N)C(=O)N[C@@H](CCS(C)(=O)=O)C(N)=O was tested, and the Ki (Substance-P receptor [2]) was 20 nM.
For COc1ccccc1CN[C@@H]1CCCN[C@@H]1c1ccccc1, the inhibition [3] was 50%.
For CC[C@H](C)[C@H](NC(=O)[C@H](Cc1ccccc1)NC(=O)[C@H](C)NC(=O)[C@H](CC(=O)O)NC(=O)[C@H](CCCCN)NC(=O)[C@H](CO)NC(=O)[C@@H]1CCCN1C(=O)[C@@H]1CCC(=O)N1)C(=O)NCC(=O)N[C@@H](CC(C)C)C(=O)N[C@@H](CCSC)C(N)=O ([pGlu]PSKDAFIGLM-NH2), the inhibition [4] was 15%.
COc1ccccc1CN[C@H]1CCCN[C@H]1c1ccccc1 (stereo in doubt; 5) [CP-99994] gave a Ki (Substance-P receptor [1]) of 0.17 nM.
With COc1ccccc1CN[C@H]1CCCN[C@H]1c1ccccc1 (stereo in doubt; 6b) [CP-99994] the Ki (Substance-P receptor [1]) was 0.27 nM.
CSCC[C@H](NC(=O)[C@H](CC(C)C)NC(=O)CNC(=O)[C@@H](NC(=O)[C@H](Cc1ccccc1)NC(=O)[C@H](CO)NC(=O)[C@H](CC(=O)O)NC(=O)[C@@H](NC(=O)[C@H](CCCCN)NC(=O)[C@@H](N)Cc1cnc[nH]1)[C@@H](C)O)C(C)C)C(N)=O [NEUROKININ A] showed a Ki [5] of 3.7 µM.
